Laboratory results as given in publication PMC10609273, “Radiosynthesis and Early Evaluation of a Positron Emission Tomography Imaging Probe [^18F]AGAL Targeting Alpha-Galactosidase A Enzyme for Fabry Disease” (Molecules, 2023).

Assays:
wild type mice = test: Dynamic in vivo PET/CT imaging after intravenous injection; set-up: species or system mouse; settings: i.v.
Protocol: After intravenous injection of [^18F]AGAL in wild type mice, the radioactivity rapidly accumulated in key organs such as the kidneys, liver, and heart, with the kidneys having the highest peak standardized uptake value (SUV ~18) at 3 min followed by rapid washout from all organs to lower than 1 SUV by 30 min and remaining low until the end of the 90 min scan (Figure 6A,B).
Figure 6 Dynamic in vivo PET/CT imaging in wild type mice after [^18F]AGAL intravenous injection. Time course of average radioactivity concentrations (n = 4, Mean ± SD) from various organs shown for full 90 min (A) and first 10 min (B) after tracer injection. (C) Representative coronal sections of PET/CT scan images from a wild type mouse with frames averaged between 0–2 min, 2–10 min, 10–30 min, 30–60 min, and 60–90 min are shown. SUV: Standardized uptake value.
[^18F]AGAL PET imaging was performed on a dedicated small animal PET/CT scanner (Siemens Multimodality Inveon, Siemens Medical Solutions USA Inc., Knoxville, TN, USA). The wild-type mice (n = 3, male 129S6) were anesthetized with 3% isoflurane/medical air inhalation prior to the radiotracer injection and throughout the scan duration. A bolus intravenous injection (via the lateral tail vein) of [^18F]AGAL (~7.4 MBq) was administered followed by dynamic PET scans in list mode for 90 min. After the PET acquisition, a low-dose CT scan was acquired (80 kVp, 0.5 mA) for anatomical reference and to provide guidance for the delineation of selected tissues volume of interest (VOI). The acquired PET data were sorted into 0.5 mm sinogram bins and 25 time frames (4 × 15 s, 4 × 60 s, and 17 × 300 s) for image reconstruction using FORE/3D-OSEM-MAP. The reconstructed PET/CT images were analyzed with the Siemens Inveon Research Workplace software v4.0 or other appropriate software. The radioactivity retention within the selected tissue was obtained from mean voxel intensity values within the VOI and then converted to megabecquerels per milliliter using the calibration factor determined for the Inveon PET System. […]

[1] = Stability of the formulated product by analytical HPLC; type: physicochemical
Protocol: Stability of the product was monitored via analytical HPLC over time.
Approximately 2000 mCi of [^18F]fluoride was produced on a GE PETtrace 800 cyclotron and delivered to the ^18F target delivery vial of a GE FX2 N radiosynthesis module (Figure 4). The irradiated target water was passed through a pre-conditioned Sep-PAK Light QMA Cartridge to trap [^18F]fluoride, followed by elution from the cartridge into reactor 1 using 3 mg […] and 13 mg Cryptand 222 in 0.6 mL of 50% acetonitrile in water. The contents of reactor 1 were dried via azeotropic distillation using a combination of heating, helium flow, and vacuum. An additional 1 mL of acetonitrile was introduced to reactor 1 and the azeotropic drying process was repeated. The reactor temperature was then reduced to 30 °C, followed by introduction of 4-pentynyl p-tosylate (10 mg, ABX GmbH, Radeberg, Germany) in 1.0 mL acetonitrile (anhydrous). The reactor was then sealed and heated to 110 °C and allowed to react with stirring for 3 min. Reactor 1 was then opened to reactor 2, with the reactor 1 needle in the “up” position. […]

## O=C(CCCCCCCn1cc(CCC[18F])nn1)N1C2C(O)C(O)C(O)C(CO)C21 (centres unmarked) [[^18F]AGAL]
Wild type mice; PET images
  bone uptake (tracer defluorination): No bone uptake
Wild type mice; at 3 min
  peak standardized uptake value (SUV), kidneys: ~ 18 SUV
Wild type mice; by 30 min until end of 90 min scan
  standardized uptake value after washout, all organs: lower than 1 SUV
[1]; after 6 h, with sodium ascorbate in the formulation (5 mg/mL)
  decrease in RCP: less than 3%
[1]; after 6 h at room temperature, 10% EtOH in saline
  decrease in RCP: 5–8%
